Among the data in patent US20230393140A1, “BINDING ASSAYS INVOLVING A PLURALITY OF SYNTHETIC COMPOUNDS, TARGETS, AND COUNTER TARGETS” (SRI International, priority 2020, published 2023) are Kd values, retold here.

Numbered stars: 1 amine (or outer) side, 2 acyl side, 3 side chain; on linkers, the order of the positions; unused ones are H or OH. Square brackets hold non-standard residues; d marks the D form. Peptide text beside a SMILES is read from it. * marks the point of attachment. 5FAM = O=C1OC2(c3ccc(O)cc3Oc3cc(O)ccc32)c2ccc(C(=O)*)cc21; NHCH2C6H4(4-CH2CONH2) = NC(=O)Cc1ccc(CN*)cc1; X1 = O=C(Cc1ccc(CN[*:1])cc1)[*:2]

The target of this experiment is T1, ASGPR (Homo sapiens, UniProt P07306).
T1 construct: purchased R&D Systems, Inc. 4394-AS
T1 sequence (P07306 1-291): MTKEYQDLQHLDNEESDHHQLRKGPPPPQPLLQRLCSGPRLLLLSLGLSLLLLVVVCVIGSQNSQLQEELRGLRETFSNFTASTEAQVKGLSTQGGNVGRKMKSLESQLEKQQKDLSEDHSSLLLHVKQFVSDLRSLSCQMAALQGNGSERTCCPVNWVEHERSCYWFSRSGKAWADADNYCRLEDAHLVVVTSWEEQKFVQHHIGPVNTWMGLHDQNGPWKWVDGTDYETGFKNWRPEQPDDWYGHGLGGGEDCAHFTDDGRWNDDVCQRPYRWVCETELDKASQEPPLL
Kind of experiment: MST binding affinity of resynthesized NNP hits to ASGPR. Conditions: read-out: KD (nM) [95% conf. int]; MST; NNP1 library hit; target ASGPR; one-site binding model. The procedure:
Hit binding affinity to various targets were determined using Microscale Thermophoresis (MST). MST experiments were performed on a Monolith NT.115pico (NanoTemper Technologies GmbH, Munich, Germany). Measurements were performed at room temperature, in triplicate with incubation periods of 15, 30 and 45 minutes. […] Targets were labeled using Nanotemper Monolith 2nd Generation Protein Labeling Kits. RED-MALEIMIDE (Maleimide-647-dye) labeling kit was used for K-Ras and RED-NHS (NHS-647-dye) labeling kit was used for IL-6, IL-6R, TNFα and ASGPR. The buffer for the ASGPR contained 20 mM HEPES pH 7.4, 150 mM NaCl, 10 mM MgCl2, 2 mM CaCl2, 0.05% Pluronic F-127, and 1 mM DTT; for IL-6 contained 20 mM HEPES pH 7.4, 150 mM KCl, 10 mM MgCl2, and 0.1% Pluronic F-127; for the soluble IL-6 receptor 20 mM HEPES pH 7.4, 150 mM NaCl, 10 mM MgCl2, and 0.05% Tween-20; for K-Ras 20 mM HEPES pH 7.4, 150 mM NaCl, 10 mM MgCl2, 0.05% Tween-20 and 1 mM DTT; for TNFα 10 mM HEPES pH 7.4, 150 mM NaCl, 10 mM MgCl2, 0.05% Polysorbate-20. Triplicate data was analyzed using MO.AffinityAnalysis software (NanoTemper Technologies GmbH).
In the case of `CC(C)C[C@H](NC(=O)[C@@H](CCCNC(=N)N)NC(=O)[C@@H](CCCCN)NC(=O)[C@@H](CCC(=O)O)NC(=O)[C@@H](Cc1ccccc1)NC(=O)Cc1ccc(CNC(=O)[C@H](Cc2ccccc2)NC(=O)[C@@H](CO)NC(=O)[C@@H](CCC(=O)O)NC(=O)[C@H]2CCCN2C(=O)[C@@H](CC(C)C)NC(=O)c2ccc3c(c2)C(=O)OC32c3ccc(O)cc3Oc3cc(O)ccc32)cc1)C(=O)NCc1ccc(CC(=O)NCC(=O)N2CCC[C@@H]2C(=O)N[C@H](CCCNC(=N)N)C(=O)N[C@H](CO)C(=O)N[C@@H](Cc2ccccc2)C(=O)NCc2ccc(CC(=O)N3CCC[C@@H]3C(=O)N[C@H](CCCCN)C(=O)N[C@H](Cc3ccc(O)cc3)C(=O)N[C@H](CCCNC(=N)N)C(=O)N[C@@H](Cc3ccccc3)C(=O)NCc3ccc(CC(=O)N[C@H](CCCNC(=N)N)C(=O)N[C@H](Cc4ccccc4)C(=O)N4CCC[C@@H]4C(=O)N[C@@H](C(=O)NCC(=O)NCc4ccc(CC(=O)N[C@H](CC(C)C)C(=O)N5CCC[C@@H]5C(=O)N[C@H](CCCNC(=N)N)C(=O)N[C@@H](C(=O)NCC(=O)NCc5ccc(CC(N)=O)cc5)[C@H](C)O)cc4)C(C)C)cc3)cc2)cc1` [ASGPR-9-3] (5FAM-[dL][dP][dE][dS]F[X1][dF][dE][dK][dR]L[X1]G[dP][dR][dS]F[X1][dP][dK][dY][dR]F[X1][dR][dF][dP][dV]G[X1][dL][dP][dR][dT]G-{NHCH2C6H4(4-CH2CONH2)}), the Kd stood at 330 nM.
As for `CC(C)C[C@H](NC(=O)[C@@H](CCCNC(=N)N)NC(=O)[C@@H](CCCCN)NC(=O)[C@@H](CCC(=O)O)NC(=O)[C@@H](Cc1ccccc1)NC(=O)Cc1ccc(CNC(=O)[C@H](Cc2ccccc2)NC(=O)[C@@H](CO)NC(=O)[C@@H](CCC(=O)O)NC(=O)[C@H]2CCCN2C(=O)[C@@H](CC(C)C)NC(=O)c2ccc3c(c2)C(=O)OC32c3ccc(O)cc3Oc3cc(O)ccc32)cc1)C(=O)NCc1ccc(CC(=O)N[C@H](Cc2c[nH]cn2)C(=O)N[C@H](CO)C(=O)N2CCC[C@@H]2C(=O)N[C@H](CCCNC(=N)N)C(=O)N[C@H](C(=O)NCc2ccc(CC(=O)N3CCC[C@@H]3C(=O)N[C@H](CCCCN)C(=O)N[C@H](Cc3ccc(O)cc3)C(=O)N[C@H](CCCNC(=N)N)C(=O)N[C@@H](Cc3ccccc3)C(=O)NCc3ccc(CC(=O)N[C@H](CCCNC(=N)N)C(=O)N[C@H](Cc4ccccc4)C(=O)N4CCC[C@@H]4C(=O)N[C@@H](C(=O)NCC(=O)NCc4ccc(CC(=O)N[C@H](CC(C)C)C(=O)N5CCC[C@@H]5C(=O)N[C@H](CCCNC(=N)N)C(=O)N[C@@H](C(=O)NCC(=O)NCc5ccc(CC(N)=O)cc5)[C@H](C)O)cc4)C(C)C)cc3)cc2)C(C)C)cc1` [ASGPR-9-7] (5FAM-[dL][dP][dE][dS]F[X1][dF][dE][dK][dR]L[X1][dH][dS][dP][dR]V[X1][dP][dK][dY][dR]F[X1][dR][dF][dP][dV]G[X1][dL][dP][dR][dT]G-{NHCH2C6H4(4-CH2CONH2)}), the figure is 150 nM.
Take `CC(C)C[C@H](NC(=O)[C@@H](Cc1c[nH]cn1)NC(=O)[C@@H](CC(C)C)NC(=O)[C@H]1CCCN1C(=O)[C@@H](CC(N)=O)NC(=O)Cc1ccc(CNC(=O)[C@H](Cc2ccccc2)NC(=O)[C@@H](Cc2c[nH]cn2)NC(=O)[C@@H](CCCNC(=N)N)NC(=O)[C@@H](CC(N)=O)NC(=O)[C@@H](Cc2ccc(O)cc2)NC(=O)Cc2ccc(CNC(=O)[C@H](CC(C)C)NC(=O)[C@@H](CCCNC(=N)N)NC(=O)[C@@H](CCCCN)NC(=O)[C@@H](CCC(=O)O)NC(=O)[C@@H](Cc3ccccc3)NC(=O)Cc3ccc(CNC(=O)[C@H](Cc4ccccc4)NC(=O)[C@@H](CO)NC(=O)[C@@H](CCC(=O)O)NC(=O)[C@H]4CCCN4C(=O)[C@@H](CC(C)C)NC(=O)c4ccc5c(c4)C(=O)OC54c5ccc(O)cc5Oc5cc(O)ccc54)cc3)cc2)cc1)C(=O)NCc1ccc(CC(=O)N[C@H](CCCNC(=N)N)C(=O)N[C@H](Cc2ccccc2)C(=O)N2CCC[C@@H]2C(=O)N[C@@H](C(=O)NCC(=O)NCc2ccc(CC(=O)N[C@H](CC(C)C)C(=O)N3CCC[C@@H]3C(=O)N[C@H](CCCNC(=N)N)C(=O)N[C@@H](C(=O)NCC(=O)NCc3ccc(CC(N)=O)cc3)[C@H](C)O)cc2)C(C)C)cc1` [ASGPR-9-10] (5FAM-[dL][dP][dE][dS]F[X1][dF][dE][dK][dR]L[X1][dY][dN][dR][dH]F[X1][dN][dP][dL][dH]L[X1][dR][dF][dP][dV]G[X1][dL][dP][dR][dT]G-{NHCH2C6H4(4-CH2CONH2)}): the Kd was determined as 97 nM.
For `CC(C)C[C@H](NC(=O)[C@@H](Cc1c[nH]c2ccccc12)NC(=O)[C@@H](CCC(=O)O)NC(=O)[C@@H](CO)NC(=O)[C@@H](CCCNC(=N)N)NC(=O)Cc1ccc(CNC(=O)[C@H](Cc2ccccc2)NC(=O)[C@@H](Cc2c[nH]cn2)NC(=O)[C@@H](CCCNC(=N)N)NC(=O)[C@@H](CC(N)=O)NC(=O)[C@@H](Cc2ccc(O)cc2)NC(=O)Cc2ccc(CNC(=O)[C@H](CC(C)C)NC(=O)[C@@H](CCCNC(=N)N)NC(=O)[C@@H](CCCCN)NC(=O)[C@@H](CCC(=O)O)NC(=O)[C@@H](Cc3ccccc3)NC(=O)Cc3ccc(CNC(=O)[C@H](Cc4ccccc4)NC(=O)[C@@H](CO)NC(=O)[C@@H](CCC(=O)O)NC(=O)[C@H]4CCCN4C(=O)[C@@H](CC(C)C)NC(=O)c4ccc5c(c4)C(=O)OC54c5ccc(O)cc5Oc5cc(O)ccc54)cc3)cc2)cc1)C(=O)NCc1ccc(CC(=O)N[C@H](CCCNC(=N)N)C(=O)N[C@H](Cc2ccccc2)C(=O)N2CCC[C@@H]2C(=O)N[C@@H](C(=O)NCC(=O)NCc2ccc(CC(=O)N[C@H](CC(C)C)C(=O)N3CCC[C@@H]3C(=O)N[C@H](CCCNC(=N)N)C(=O)N[C@@H](C(=O)NCC(=O)NCc3ccc(CC(N)=O)cc3)[C@H](C)O)cc2)C(C)C)cc1` [ASGPR-9-11] (5FAM-[dL][dP][dE][dS]F[X1][dF][dE][dK][dR]L[X1][dY][dN][dR][dH]F[X1][dR][dS][dE][dW]L[X1][dR][dF][dP][dV]G[X1][dL][dP][dR][dT]G-{NHCH2C6H4(4-CH2CONH2)}), the Kd stood at 0.22 nM.
As for `CC(C)C[C@H](NC(=O)[C@@H](CCCNC(=N)N)NC(=O)[C@@H](CCCCN)NC(=O)[C@@H](CCC(=O)O)NC(=O)[C@@H](Cc1ccccc1)NC(=O)Cc1ccc(CNC(=O)[C@H](Cc2ccccc2)NC(=O)[C@@H](CO)NC(=O)[C@@H](CCC(=O)O)NC(=O)[C@H]2CCCN2C(=O)[C@@H](CC(C)C)NC(=O)c2ccc3c(c2)C(=O)OC32c3ccc(O)cc3Oc3cc(O)ccc32)cc1)C(=O)NCc1ccc(CC(=O)N[C@H](Cc2ccc(O)cc2)C(=O)N[C@H](CC(N)=O)C(=O)N[C@H](CCCNC(=N)N)C(=O)N[C@H](Cc2c[nH]cn2)C(=O)N[C@@H](Cc2ccccc2)C(=O)NCc2ccc(CC(=O)N[C@H](Cc3ccc(O)cc3)C(=O)N[C@@H](C(=O)N3CCC[C@@H]3C(=O)N[C@H](CCCNC(=N)N)C(=O)N[C@@H](C)C(=O)NCc3ccc(CC(=O)N[C@H](CCCNC(=N)N)C(=O)N[C@H](Cc4ccccc4)C(=O)N4CCC[C@@H]4C(=O)N[C@@H](C(=O)NCC(=O)NCc4ccc(CC(=O)N[C@H](CC(C)C)C(=O)N5CCC[C@@H]5C(=O)N[C@H](CCCNC(=N)N)C(=O)N[C@@H](C(=O)NCC(=O)NCc5ccc(CC(N)=O)cc5)[C@H](C)O)cc4)C(C)C)cc3)[C@H](C)O)cc2)cc1` [ASGPR-9-12] (5FAM-[dL][dP][dE][dS]F[X1][dF][dE][dK][dR]L[X1][dY][dN][dR][dH]F[X1][dY][dT][dP][dR]A[X1][dR][dF][dP][dV]G[X1][dL][dP][dR][dT]G-{NHCH2C6H4(4-CH2CONH2)}), the dissociation constant (Kd) was 6 nM.
With `CC(C)C[C@H](NC(=O)CNC(=O)[C@@H](Cc1c[nH]cn1)NC(=O)[C@@H](CCCNC(=N)N)NC(=O)[C@H]1CCCN1C(=O)Cc1ccc(CNC(=O)[C@H](Cc2ccccc2)NC(=O)[C@@H](CO)NC(=O)[C@@H](CCCNC(=N)N)NC(=O)[C@H]2CCCN2C(=O)CNC(=O)Cc2ccc(CNC(=O)[C@H](C)NC(=O)[C@@H](CCCNC(=N)N)NC(=O)[C@H]3CCCN3C(=O)[C@H](NC(=O)CNC(=O)Cc3ccc(CNC(=O)[C@H](Cc4ccccc4)NC(=O)[C@@H](CO)NC(=O)[C@@H](CCC(=O)O)NC(=O)[C@H]4CCCN4C(=O)[C@@H](CC(C)C)NC(=O)c4ccc5c(c4)C(=O)OC54c5ccc(O)cc5Oc5cc(O)ccc54)cc3)C(C)C)cc2)cc1)C(=O)NCc1ccc(CC(=O)N[C@H](CCCNC(=N)N)C(=O)N[C@H](Cc2ccccc2)C(=O)N2CCC[C@@H]2C(=O)N[C@@H](C(=O)NCC(=O)NCc2ccc(CC(=O)N[C@H](CC(C)C)C(=O)N3CCC[C@@H]3C(=O)N[C@H](CCCNC(=N)N)C(=O)N[C@@H](C(=O)NCC(=O)NCc3ccc(CC(N)=O)cc3)[C@H](C)O)cc2)C(C)C)cc1` [ASGPR-9-14] (5FAM-[dL][dP][dE][dS]F[X1]G[dV][dP][dR]A[X1]G[dP][dR][dS]F[X1][dP][dR][dH]GL[X1][dR][dF][dP][dV]G[X1][dL][dP][dR][dT]G-{NHCH2C6H4(4-CH2CONH2)}), the Kd was determined as 20 nM.
